What follows are compounds tested against T1, BRD9 (Homo sapiens, UniProt Q9H8M2) (assay: HiBiT BRD9 degradation assay in 293T.166 (BRD9-HiBiT) cells). Conditions: Table 1; 293T.166 cells, 2.0 hours; class symbols; read-out: HiBiT-Degradation 293T.166 BRD9 2.0 hours (DC50).
T1 sequence (Q9H8M2 1-597): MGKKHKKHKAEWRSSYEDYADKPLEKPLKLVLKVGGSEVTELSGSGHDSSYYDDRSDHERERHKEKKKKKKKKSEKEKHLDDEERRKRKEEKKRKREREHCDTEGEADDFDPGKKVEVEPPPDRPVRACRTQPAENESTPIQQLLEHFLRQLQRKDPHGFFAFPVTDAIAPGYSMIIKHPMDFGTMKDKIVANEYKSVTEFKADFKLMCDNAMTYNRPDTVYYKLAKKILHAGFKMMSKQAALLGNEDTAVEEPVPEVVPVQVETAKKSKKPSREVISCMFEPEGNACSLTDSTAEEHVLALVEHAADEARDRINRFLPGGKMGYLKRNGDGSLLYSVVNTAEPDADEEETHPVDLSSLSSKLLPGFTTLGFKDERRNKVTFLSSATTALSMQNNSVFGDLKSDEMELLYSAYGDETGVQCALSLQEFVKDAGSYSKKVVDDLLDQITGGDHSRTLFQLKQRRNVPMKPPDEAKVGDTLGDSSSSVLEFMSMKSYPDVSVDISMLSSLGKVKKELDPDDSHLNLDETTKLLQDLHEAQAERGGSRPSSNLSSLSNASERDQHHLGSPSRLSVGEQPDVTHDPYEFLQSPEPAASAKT
Type: cell-based
Design: endogenously expressing BRD9 with HiBiT fusion tag via CRISPR; host or cells: 293T.166 (BRD9-HiBiT), also expressing LgBiT ectopically
How it was run: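 Luminescence from the Nano-Glo HiBiT lytic reagent quantified BRD9 loss after compounds (top 10 μM, half-log, 11 points, duplicates) were incubated 2 h at 37° C. with 10,000 293T.166 BRD9-HiBiT/LgBiT cells per well, with controls lacking compound or lacking reagent.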

SMILES	DC50 [nM]
COc1cc(-c2cn(C)c(=O)c3[nH]ncc23)cc(Cl)c1CN1CCC(C2CCN(c3ccc(NC4CCC(=O)NC4=O)cc3Cl)CC2)CC1 (stereo not drawn) [Compound 75]	< 100
COc1cc(-c2cn(C)c(=O)c(C)c2C)cc(Cl)c1CN1CCC(C2CCN(c3ccc(NC4CCC(=O)NC4=O)cc3Cl)CC2)CC1 (stereo not drawn) [Compound 76]	< 100
COc1cc(-c2cn(C)c(=O)c3cnccc23)cc(Cl)c1CN1CCC(C2CCN(c3ccc(NC4CCC(=O)NC4=O)cc3Cl)CC2)CC1 (stereo not drawn) [Compound 77]	< 100
COc1cc(-c2cn(C)c(=O)c3cnccc23)cc(Cl)c1CN1CCC(C2CCN(c3ccc(NC4CCC(=O)NC4=O)cc3F)CC2)CC1 (stereo not drawn) [Compound 78]	< 100
Cn1cc(-c2ccc(CN3CCC(C4CCN(c5ccc(NC6CCC(=O)NC6=O)cc5F)CC4)CC3)c(OC(F)(F)F)c2)c2ccncc2c1=O (stereo not drawn) [Compound 79]	< 100
Cc1c(-c2ccc(CN3CCC(C4CCN(c5ccc(NC6CCC(=O)NC6=O)cc5F)CC4)CC3)c(OC(F)(F)F)c2)cn(C)c(=O)c1C (stereo not drawn) [Compound 80]	< 100
Cc1c(-c2ccc(CN3CCC(C4CCN(c5ccc(NC6CCC(=O)NC6=O)cc5F)CC4)CC3)nc2)cn(C)c(=O)c1C (stereo not drawn) [Compound 81]	< 100
COc1cc(-c2cn(C)c(=O)c(C)c2C)cnc1CN1CCC(C2CCN(c3ccc(NC4CCC(=O)NC4=O)cc3F)CC2)CC1 (stereo not drawn) [Compound 82]	< 100
COc1cc(-c2cn(C)c(=O)c3cnccc23)cc(Cl)c1CN1CCC(C2CCN(c3ccc(NC4CCC(=O)NC4=O)cc3C(F)(F)F)CC2)CC1 (stereo not drawn) [Compound 83, 3-[4-[4-[1-[[2-chloro-6-methoxy-4-(2-methyl-1-oxo-2,7-naphthyridin-4-yl)phenyl]methyl]-4-piperidyl]-1-piperidyl]-3-(trifluoromethyl)anilino]piperidine-2,6-dione]	< 100
COc1cc(-c2cn(C)c(=O)c3[nH]ncc23)cc(F)c1CN1CCC(C2CCN(c3ccc(NC4CCC(=O)NC4=O)cc3C(F)(F)F)CC2)CC1 (stereo not drawn) [Compound 84]	< 100
COc1cc(-c2cn(C)c(=O)c(C)c2C)cc(Cl)c1CN1CCC(C2CCN(c3ccc(NC4CCC(=O)NC4=O)cc3C(F)(F)F)CC2)CC1 (stereo not drawn) [Compound 85]	< 100
COc1cc(-c2cn(C)c(=O)c(C)c2C)cc(F)c1CN1CCC(C2CCN(c3ccc(NC4CCC(=O)NC4=O)cc3C(F)(F)F)CC2)CC1 (stereo not drawn) [Compound 86]	< 100
COc1cc(-c2cn(C)c(=O)c3cnccc23)cc(F)c1CN1CCC(C2CCN(c3ccc(NC4CCC(=O)NC4=O)cc3C(F)(F)F)CC2)CC1 (stereo not drawn) [Compound 87]	< 100
COc1cc(-c2cn(C)c(=O)c3cnccc23)cc(Cl)c1CN1CCC(C2CCN(c3ccc(NC4CCC(=O)NC4=O)nc3)CC2)CC1 (stereo not drawn) [Compound 89]	< 100
Cc1c(-c2ccc(CN3CCC(C4CCN(c5ccc(NC6CCC(=O)NC6=O)nc5)CC4)CC3)c(OC(F)(F)F)c2)cn(C)c(=O)c1C (stereo not drawn) [Compound 90]	< 100

Now from value to compound:

DC50 [nM]	SMILES
< 100	Cc1c(-c2ccc(C(C)N3CCC(C4CCN(c5ccc(NC6CCC(=O)NC6=O)cc5F)CC4)CC3)c(OC(F)(F)F)c2)cn(C)c(=O)c1C (stereo not drawn) [Compound 91]
< 100	CC(c1ccc(-c2cn(C)c(=O)c3cnccc23)cc1OC(F)(F)F)N1CCC(C2CCN(c3ccc(NC4CCC(=O)NC4=O)cc3F)CC2)CC1 (stereo not drawn) [Compound 92]
< 100	CC(c1ccc(-c2cn(C)c(=O)c3cc(F)ccc23)cc1OC(F)(F)F)N1CCC(C2CCN(c3ccc(NC4CCC(=O)NC4=O)cc3F)CC2)CC1 (stereo not drawn) [Compound 93]
< 100	COc1cc(-c2cn(C)c(=O)c3[nH]ncc23)cc(OC)c1CN1CCC(OC(=O)N2CCC(c3ccc(NC4CCC(=O)NC4=O)cc3)CC2)CC1 (stereo not drawn) [Compound 94, [1-[[2,6-dimethoxy-4-(6-methyl-7-oxo-1H-pyrazolo[3,4-c]pyridin-4-yl)phenyl]methyl]-4-piperidyl] 4-[4-[(2,6-dioxo-3-piperidyl)amino]phenyl]piperidine-1-carboxylate]
< 100	COc1cc(-c2cn(C)c(=O)c3[nH]ncc23)cc(OC)c1CN1CCc2c(cccc2CN2CCC(c3ccc(NC4CCC(=O)NC4=O)cc3)C(F)(F)C2)C1 (stereo not drawn) [Compound 95, 3-[4-[1-[[2-[[2,6-dimethoxy-4-(6-methyl-7-oxo-1H-pyrazolo[3,4-c]pyridin-4-yl)phenyl]methyl]-3,4-dihydro-1H-isoquinolin-5-yl]methyl]-3,3-difluoro-4-piperidyl]anilino]piperidine-2,6-dione]
< 100	COc1cc(-c2cn(C)c(=O)c3cnccc23)cc(OC)c1CN1CCc2c(CN3CCC(c4ccc(NC5CCC(=O)NC5=O)cc4)CC3)cccc2C1 (stereo not drawn) [Compound 96]
< 100	COc1cc(-c2cn(C)c(=O)c3ccccc23)cc(OC)c1CN1CCc2c(CN3CCC(c4ccc(NC5CCC(=O)NC5=O)cc4)CC3)cccc2C1 (stereo not drawn) [Compound 97]
< 100	COc1cc(-c2cn(C)c(=O)c3[nH]ncc23)cc(OC)c1CN1CCc2c(CN3CCC(c4ccc(NC5CCC(=O)NC5=O)cc4)CC3)cccc2C1 (stereo not drawn) [Compound 98]
< 100	COc1cc(-c2cn(C)c(=O)c3cnccc23)cc(Cl)c1CN1CCc2c(cccc2CN2CCC(c3ccc(NC4CCC(=O)NC4=O)cc3)C(F)(F)C2)C1 (stereo not drawn) [Compound 99]
< 100	COc1cc(-c2cn(C)c(=O)c3[nH]ncc23)cc(Cl)c1CN1CCc2c(cccc2CN2CCC(c3ccc(NC4CCC(=O)NC4=O)cc3)C(F)(F)C2)C1 (stereo not drawn) [Compound 100]
< 100	Cn1cc(-c2ccc(CN3CCc4c(cccc4CN4CCC(c5ccc(NC6CCC(=O)NC6=O)cc5)C(F)(F)C4)C3)c(OC(F)(F)F)c2)c2cn[nH]c2c1=O (stereo not drawn) [Compound 101]
< 100	COc1cc(-c2cn(C)c(=O)c3[nH]ncc23)cc(OC)c1CN1CCn2c(CN3CCC(c4ccc(NC5CCC(=O)NC5=O)cc4)CC3)ccc2C1 (stereo not drawn) [Compound 102]
< 100	COc1cc(-c2cn(C)c(=O)c3[nH]ncc23)cc(OC)c1CN1CCc2c(CN3CCC(c4ccc(NC5CCC(=O)NC5=O)cc4)C(F)(F)C3)csc2C1 (stereo not drawn) [Compound 103]
< 100	COc1cc(-c2cn(C)c(=O)c3[nH]ncc23)cc(OC)c1CN1CCc2c(CC3CCN(c4ccc(NC5CCC(=O)NC5=O)cc4)CC3)cccc2C1 (stereo not drawn) [Compound 104, 3-[4-[4-[[2-[[2,6-dimethoxy-4-(6-methyl-7-oxo-1H-pyrazolo[3,4-c]pyridin-4-yl)phenyl]methyl]-3,4-dihydro-1H-isoquinolin-5-yl]methyl]-1-piperidyl]anilino]piperidine-2,6-dione]
< 100	COc1cc(-c2cn(C)c(=O)c3[nH]ncc23)cc(Cl)c1CN1CCc2c(CC3CCN(c4ccc(NC5CCC(=O)NC5=O)cc4F)CC3)cccc2C1 (stereo not drawn) [Compound 105, 3-[4-[4-[[2-[[2-chloro-6-methoxy-4-(6-methyl-7-oxo-1H-pyrazolo[3,4-c]pyridin-4-yl)phenyl]methyl]-3,4-dihydro-1H-isoquinolin-5-yl]methyl]-1-piperidyl]-3-fluoro-anilino]piperidine-2,6-dione]
< 100	COc1cc(-c2cn(C)c(=O)c3[nH]ncc23)cc(OC)c1CN1CCc2c(CC3CCN(c4ccc(NC5CCC(=O)NC5=O)cc4F)CC3)cccc2C1 (stereo not drawn) [Compound 106]
< 100	COc1cc(-c2cn(C)c(=O)c3cnccc23)cc(Cl)c1CN1CCc2c(CC3CCN(c4ccc(NC5CCC(=O)NC5=O)cc4F)CC3)cccc2C1 (stereo not drawn) [Compound 107]
< 100	COc1cc(-c2cn(C)c(=O)c(C)c2C)cc(OC)c1CN1CCc2c(CC3CCN(c4ccc(NC5CCC(=O)NC5=O)cc4C(F)(F)F)CC3)cccc2C1 (stereo not drawn) [Compound 108]

Source: US11691972B2, “Compounds for targeted degradation of BRD9” (C4 Therapeutics, Inc., priority 2020, dated 2023)
